This note sets out measurements from ChEMBL document CHEMBL1152018, “Molecular design of novel PGI2 agonists without PG skeleton. II” (Bioorg Med Chem Lett, 1995).

The species entered for one test is Homo sapiens. Kind of test: Inhibitory activity against ADP-induced platelet aggregation using human platelet rich plasma at a concentration of 4 uM by functional assay.
Another test addresses Prostacyclin receptor (Homo sapiens, UniProt P43119). Kind of test: Displacement of [3H]iloprost from Prostaglandin I2 receptor of human platelets.
The next test is filed under the species Canis familiaris. Kind of test: Evaluated for ADP-induced antiaggregation of dog platelets. It counts as functional. Conditions: Canis lupus familiaris.
The species named for test [1] is Cavia porcellus. Briefly: Effective dose for ex vivo inhibition of platelet aggregation for four hours in guinea pigs. Format: functional, organism-based.
Test [2] is filed under the species Cavia porcellus. Kind of test: Evaluated for ADP-induced antiaggregation of guinea pig platelets. It counts as functional.

Sequence of Prostacyclin receptor (P43119 whole entry): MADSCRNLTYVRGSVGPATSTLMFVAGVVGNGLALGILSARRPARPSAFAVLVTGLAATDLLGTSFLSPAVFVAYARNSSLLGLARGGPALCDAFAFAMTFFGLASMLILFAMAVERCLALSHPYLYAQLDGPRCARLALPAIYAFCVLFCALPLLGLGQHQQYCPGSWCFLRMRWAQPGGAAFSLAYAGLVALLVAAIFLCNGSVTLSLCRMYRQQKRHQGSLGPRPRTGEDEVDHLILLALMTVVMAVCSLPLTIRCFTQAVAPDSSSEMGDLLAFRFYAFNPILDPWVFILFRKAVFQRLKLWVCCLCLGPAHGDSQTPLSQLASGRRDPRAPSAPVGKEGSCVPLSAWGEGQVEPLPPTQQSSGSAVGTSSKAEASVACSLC

Regarding `CCC/C(CCC1CCCc2c(OCC(=O)O)cccc21)=N\OC(c1ccccc1)c1ccccc1` (configuration not stated), the concentration for half-maximal inhibition (IC50) was determined as 2.4 µM in the test filed under Homo sapiens and 2.1 µM on Prostacyclin receptor.
As for `C/C(CC1CCc2c(cccc2OCC(=O)O)C1)=N\OCc1ccccc1` (configuration not stated), the IC50 in the test listed under Homo sapiens worked out at 12 µM; at Prostacyclin receptor, 5.3 µM.
`C/C(CC1CCc2c(cccc2OCC(=O)O)C1)=N\OC(c1ccccc1)c1ccccc1` (configuration not stated) displayed an IC50 at Prostacyclin receptor of 0.38 µM.
At Prostacyclin receptor, `C/C(C[C@H]1CCc2c(cccc2OCC(=O)O)C1)=N\OC(c1ccccc1)c1ccccc1` yielded an IC50 of 0.22 µM.
In the test filed under Homo sapiens, `CCC/C(C[C@H]1CCc2c(cccc2OCC(=O)O)C1)=N\OC(c1ccccc1)c1ccccc1` yielded an IC50 of 0.13 µM.
As to `CC/C(CC1CCc2c(cccc2OCC(=O)O)C1)=N\OC(c1ccccc1)c1ccccc1` (configuration not stated), the results for the IC50 in the test listed under Homo sapiens and at Prostacyclin receptor were 0.07 µM and 0.15 µM, respectively.
In the same order, the values of `C/C(C[C@@H]1CCc2c(cccc2OCC(=O)O)C1)=N\OC(c1ccccc1)c1ccccc1` are 1.9 µM and 2.2 µM.
In the same order, the values of `CCCCC[C@H](O)/C=C/[C@H]1[C@H](O)CC(=O)[C@@H]1CCCCCCC(=O)O` [ALPROSTADIL] are 0.07 µM and 1.4 µM.
Regarding `CCC/C(CC1CCc2c(cccc2OCC(=O)O)C1)=N\OC(c1ccccc1)c1ccccc1` (configuration not stated) [AP-227], the results for the IC50 at Prostacyclin receptor, in the test filed under Canis familiaris and in the test listed under Cavia porcellus [2] were 0.15 µM, 7.3 µM and 1.9 µM, respectively. The EC50 in the test listed under Cavia porcellus [1] was found to be 0.82 mg/kg.
